Assays:
[1] = tested on: ATT triplex (poly dA-2poly dT) (DNA, polymer) A/T/T; assay: UV melting, 260 nm; conditions: Na-cacodylate with NaCl, I = 0.1 M, pH 7.0, 1 mM EDTA, r = 0.1, error ±0.5, per base
[2] = tested on: poly rA-poly rU (RNA, polymer) A/U; assay: UV melting of four-polynucleotide mixture, 260 nm; conditions: Na-cacodylate with NaCl, I = 0.1 M; pH 7.0, 1 mM EDTA; 2 μM compound, 20 μM (bp) each polynucleotide, r = 0.025; error ±0.5; per base
[3] = tested on: poly dA-poly dT (DNA, polymer) A/T; assay: UV melting of four-polynucleotide mixture, 260 nm; conditions: Na-cacodylate with NaCl, I = 0.1 M; pH 7.0, 1 mM EDTA; 2 μM compound, 20 μM (bp) each polynucleotide, r = 0.025; error ±0.5; per base
poly dT (DNA, polymer) T = assay: competition dialysis; conditions: Na-cacodylate, I = 0.05 M; pH 7, 1 mM EDTA, 25 °C, 24 h; 5 μM compound; bound amount only in figure
[4] = tested on: poly rA-poly dT (DNA:RNA, polymer) A/T; assay: UV melting of four-polynucleotide mixture, 260 nm; conditions: Na-cacodylate with NaCl, I = 0.1 M; pH 7.0, 1 mM EDTA; 2 μM compound, 20 μM (bp) each polynucleotide, r = 0.025; error ±0.5; per base
[5] = tested on: poly rA-poly dT (DNA:RNA, polymer) A/T; assay: ITC; conditions: Na-cacodylate, I = 0.05 M; pH 7.0, 1 mM EDTA, 25 °C; one-site fit; per base
[6] = tested on: poly dA-poly rU (DNA:RNA, polymer) A/U; assay: UV melting of four-polynucleotide mixture, 260 nm; conditions: Na-cacodylate with NaCl, I = 0.1 M; pH 7.0, 1 mM EDTA; 2 μM compound, 20 μM (bp) each polynucleotide, r = 0.025; error ±0.5; per base
[7] = tested on: ATT triplex (poly dA-2poly dT) (DNA, polymer) A/T/T; assay: ITC; conditions: Na-cacodylate, I = 0.05 M; pH 7.0, 1 mM EDTA, 25 °C; site with n 0.1 of two-site fit (other site 6.5, n 0.7); per base
poly rA (RNA, polymer) A = assay: competition dialysis; conditions: Na-cacodylate, I = 0.05 M; pH 7, 1 mM EDTA, 25 °C, 24 h; 5 μM compound; bound amount only in figure
[8] = tested on: poly rA-poly rU (RNA, polymer) A/U; assay: CD titration; conditions: Na-cacodylate, I = 0.05 M, 30 μM polynucleotide
[9] = tested on: ATT triplex (poly dA-2poly dT) (DNA, polymer) A/T/T; assay: fluorescence titration, Scatchard; conditions: Na-cacodylate, I = 0.05 M; pH 7.0, 1 mM EDTA, 25 °C; per phosphate; per base
[10] = tested on: poly dA-poly dT (DNA, polymer) A/T; assay: CD titration; conditions: Na-cacodylate, I = 0.05 M; pH 7.0, 1 mM EDTA; 30 μM polynucleotide, r = 0.3; bisignate ICD, minor-groove dimers
[11] = tested on: ATT 26mer triplex (DNA, triplex) AAAAAAAAAAAAAAAAAAAAAAAAAA/TTTTTTTTTTTTTTTTTTTTTTTTTT/TTTTTTTTTTTTTTTTTTTTTTTTTT; assay: fluorescence titration, Scatchard; conditions: Na-cacodylate, I = 0.05 M; pH 7.0, 1 mM EDTA, 25 °C; per phosphate; per base
[12] = tested on: poly dA-poly rU (DNA:RNA, polymer) A/U; assay: fluorescence titration, Scatchard; conditions: Na-cacodylate; pH 7.0, 1 mM EDTA, 25 °C; per phosphate; table footnote says I = 0.05 M; per base
[13] = third-strand transition (duplex transition 0)

| Compound | ΔTm ([1]; third-strand transition (duplex transition 21.9)) [°C] | ΔTm [2] [°C] | ΔTm [3] [°C] | binding (poly dT (DNA, polymer) T) | ΔTm [4] [°C] | log Ks [5] | ΔTm [6] [°C] | log Ks [7] | binding (poly rA (RNA, polymer) A) | binding ([8]; pH 7.0, 1 mM EDTA, r = 0.3, negative ICD, intercalation) | ΔTm [1, 13] [°C] | log Ks [9] | binding [10] | log Ks [11] | log Ks [12] | binding ([8]; pH 7.0, bisignate ICD, major-groove dimers) |
| --- | --- | --- | --- | --- | --- | --- | --- | --- | --- | --- | --- | --- | --- | --- | --- | --- |
| c1cc2nc(-c3cncc(-c4nc5ccc(C6=NCCN6)cc5s4)c3)sc2cc1C1=NCCN1 | 31.7 | 2.2 | 19.1 | yes | 1.7 | 7.8 | 5.6 | 8.7 | yes | – | – | – | – | – | – | – |
| Clc1c(-c2nc3ccc(C4=NCCN4)cc3s2)sc2ccccc12 | – | 0 | 0 | – | – | – | 5.5 | – | yes | yes | 43.7 | 7.6 | yes | 7.4 | 8.0 | – |
| c1csc(-c2ccc(-c3nc4ccc(C5=NCCN5)cc4s3)s2)c1 | – | – | 2.1 | – | 1.7 | – | – | – | – | – | 27.3 | – | – | – | – | yes |

Reference: article PMC8945811 (2022)
